Measurements reported in the NIST ThermoML archive (doi:10.1021/je700205n).

Conditions: Liquid

CCCCCCCn1cc[n+](C)c1.O=S(=O)([N-]S(=O)(=O)C(F)(F)F)C(F)(F)F
mass density [kg/m3]
Conditions | 293.15 K | 303.15 K | 313.15 K | 323.15 K | 333.15 K | 343.15 K | 353.15 K | 393.15 K
100 kPa | 1352 | 1342 | 1332 | 1322 | 1313 | 1304 | 1295 | 1261
1000 kPa | 1353 | 1343 | 1333 | 1323 | 1314 | 1304 | 1296 | 1262
2000 kPa | 1354 | 1343 | 1333 | 1324 | 1315 | 1305 | 1296 | 1263
3000 kPa | 1354 | 1344 | 1334 | 1325 | 1316 | 1306 | 1297 | 1264
4000 kPa | 1355 | 1345 | 1335 | 1325 | 1317 | 1307 | 1298 | 1265
5000 kPa | 1356 | 1346 | 1336 | 1326 | 1317 | 1308 | 1299 | 1266
7500 kPa | 1358 | 1347 | 1338 | 1328 | 1319 | 1310 | 1301 | 1268
10000 kPa | 1359 | 1349 | 1339 | 1330 | 1321 | 1312 | 1303 | 1271
15000 kPa | 1363 | 1353 | 1343 | 1334 | 1325 | 1316 | 1308 | 1276
20000 kPa | 1366 | 1357 | 1347 | 1338 | 1329 | 1320 | 1312 | 1281
25000 kPa | 1370 | 1360 | 1351 | 1342 | 1333 | 1324 | 1316 | 1285
30000 kPa | 1373 | 1364 | 1355 | 1345 | 1337 | 1328 | 1320 | 1290
